Consider 4 compounds from the NIST ThermoML archive (doi:10.1016/j.fluid.2013.01.015).

A word on the refractive index: it is the speed of light in vacuum divided by its phase velocity in the sample. For orientation: mass density means the mass of a sample divided by its volume.

Series [1] in a line: refractive index (Na D-line) (dimensionless). As to conditions: 298.15 K; 101.33 kPa; Liquid; Standard Abbe refractometry.
For series [2] the following is noted: 298.15 K; 101.33 kPa; Liquid; Vibrating tube method.

Structures are written as SMILES. Numbers after ± are expanded uncertainties.

Take `Cc1ccccc1C` [1,2-dimethylbenzene]: the refractive index in series [1] was 1.49466 ± 0.00072. For the same compound, in series [2], the mass density stood at 859.54 ± 0.14 kg/m3.
Take `Cc1cccc(C)c1` [1,3-dimethylbenzene]: the refractive index in series [1] is listed as 1.49464 ± 0.00072. Besides, in series [2], the mass density was determined as 859.95 ± 0.14 kg/m3.
On to `Cc1ccc(C)cc1` [1,4-dimethylbenzene], for which, in series [1], the refractive index came out at 1.4958 ± 0.0007. Besides, the mass density in series [2] is 856.71 ± 0.14 kg/m3.
In the case of `CCCCCCCC` [octane], the refractive index in series [1] was 1.3951 ± 0.0007. In addition, in series [2], the mass density is 698.61 ± 0.17 kg/m3.
